# Laboratory results published in patent publication US20080318931A1, “Treatment of Disorders and Diseases of the Colon” (priority 2004, published 2008).
# Tests used:
# human PBMC = test: Viability of LPS-exposed human PBMC, alamar blue; assay type: cell-based; settings: LPS 2 ug/well, 2.5-30 μM, 48 hours, both subjects
# Protocol: Human PBMC were isolated from whole blood of 2 healthy volunteers (A and B subjects). Cells (2×10^6/ml) were exposed to LPS (2 ug/well) and treated with either the vehicle, or with paroxetine, sertraline, clomipramine and trifluoperazine (2.5-30 μM).
# [1] = tested on: Human Colon carcinoma (HT29) cell-line; test: Viability of human colon carcinoma HT29 cells, alamar blue and neutral red; assay type: cell-based; settings: 10-30 μM, FIG. 14
# Protocol: Human Colon carcinoma (HT29) cell-line (ATCC USA) was maintained in RPMI medium supplemented with 10% fetal calf serum and penicillin (100 u/ml), streptomycin (100 mcg/ml), nystatin (12.5 u/ml), L-glutamine (2 mM). Confluent cultures were washed with phosphate-buffered saline (PBS), detached with trypsine (0.25%), centrifuged, and subcultured in 96-well microtiter test plates. Cells were exposed to vehicle or to psychotropic drugs. Cell viability was measured 24 hours later using the alamar blue and neutral red methods. Results were expressed as % of controls (vehicle treated cells). Each sample is the Mean+/−[…] of 4 determinations.
# [2] = tested on: Con-A activated splenocytes; settings: 5 μM
# Protocol: (§2) LPS (manufactured by Sigma St. Louis Mo., USA, cat no L2880) was administered at 100 μg/mouse×2, on day 7 and day 14).
# [3] = tested on: TH1 cytokines TNF-α, IL2 and INFγ; test: TH1 cytokine secretion (TNF-α, IL2, INFγ) from Con-A-induced splenocytes, ELISA; assay type: cell-based, mouse; settings: 2.5-10 μM, 48 hours, 1×10^6 cells/well
# Protocol: Effect of paroxetine, (SSRI) and clomipramine (TCA) as compared to dexamethasone on Con-A-induced splenocyte proliferation (alamar blue method), and splenocyte-induced secretion of TH1 cytokines TNF-α, IL2 and INFγ, 1×10^6 cells/well, was measured 48 hours after exposure to drugs (2.5-10 μM).
# Cytokines were determined in the supernatant of the splenocyte specimens using an ELISA kit and protocol (Reagents by Cytolab). […] The pattern observed resembles that of dexamethasone.
# [4] = tested on: Con-A activated splenocytes; test: cells; settings: Mus musculus, Splenocyte, read-out: inhibition of viability, splenocytes from naïve animals
# Protocol: as §2
# [5] = tested on: mouse splenocytes (basal); test: Basal mouse splenocyte viability, alamar blue; assay type: cell-based; settings: 2.5-10 μM, 48 hr
# Protocol: Mouse splenocytes were isolated from C57b1 healthy female mice. Cells (10,000/well) were tested under basal and ConA stimulation. Cells were treated with vehicle, dexamethasone or antidepressants (2.5-10 μM). Viability was assessed 48 hr later using alamar blue staining. (Reagents were manufactured by Wildflower, Santa Fe, N. Mex., USA.) Alamar blue assay was performed as in Nociari et al (1998).
# Cox-2 = Cox-2 expression in human PHA activated lymphocytes, Western blot; assay type: cell-based; settings: 5 μM, PHA 15 μM
# Protocol: (§1) Total protein lysates from human lymphocyte culture were prepared by agitation with lysis buffer (20 mM Tris pH 7.5, 150 mM NaCl, 1 mM EDTA, 1% Nonidet P-40, 0.5% sodium deoxycholate, and 2 mM Na2VO4) for 1 h at 4° C. The proteins were cleared by centrifugation at 14,000×g for 20 min at 4° C. Protein concentration was determined using BCA kit (Pierce, Ill., USA). For Western blot analysis, 30 μg-protein from each sample were loaded in 7.5% SDS-PAGE. Electroblotted proteins were detected using specific anti COX-2 polyclonal antibody (Cayman chemical company, Michigan, USA) or an ti-Stat3 monoclonal antibody (Transduction Laboratories Lexington UK). Bound antibodies were visualized using chemiluminescence reaction.
# Stat3 = Stat3 expression in human PHA activated lymphocytes, Western blot; assay type: cell-based; settings: 5 μM, PHA 15 μM
# Protocol: as §1
# bcl-2 = bcl-2 expression in HT29 cells, western blot; assay type: cell-based, human; settings: 10 and 20 μM, 24 hr
# Protocol: The effect of paroxetine and sertraline on the expression of bcl-2 and C-jun was evaluated in human colon HT29 cell-line 24 hr after drug administration, using western blot analysis for C-jun and bcl-2 and specific antibodies.
# Cyclooxygenase-2 (Cox-2) = test: Cox-2 expression in ConA stimulated mouse splenocytes, Western blot; assay type: cell-based; settings: 5 μM, normalized to actin
# Protocol: Determination was performed using Western blot analysis and quantitative dencitometry of blot.
# For each sample 2×10^7 cells were used. Cells were lysed, and equal amounts of protein was fractionated on polyacrylamide gel and then transferred to PVDF membrane. The amount of the protein was detected by immuno-blotting with […] anti-Cox-2 anti body (Murine anti COX2 Polyclonal Cat. 160126, Ann Arbor, Mich., USA. 2nd antibody conjugated to horseradish peroxidase was used and visualized with chemiluminescent Kit (Pierce, Rockford, Ill., USA) on film. Quantification of blot was performed using a densitometry apparatus (VersaDoc™ imaging system, BioRad, USA) and levels were normalized to actin.
compound,measurement,setting,value
Fc1ccc([C@@H]2CCNC[C@H]2COc2ccc3c(c2)OCO3)cc1 [paroxetine],"order of potency, decrease in cell viability",human PBMC,sertraline>paroxetine>trifluoperazine>/=clomipramine
same,inhibition of cell viability,[1],64%
same,response of splenocytes from LPS mice treated in vivo with sertraline,[2]; LPS mice + sertraline 5 mg/kg×3/week two weeks,more responsive
same,response of splenocytes from LPS mice,[2]; LPS-treated mice,in a manner similar to the naive animals
same,lymphocyte-induced pro-inflammatory cytokine secretion,[3],decrease
same,cytotoxicity at 5 µM,[4],10%
same,basal splenocyte proliferation,[5],dose dependent decrease
same,PHA-induced increase in Cox-2 expression,Cox-2,antagonized
same,PHA-induced increase in Stat3 expression,Stat3,antagonized
same,expression of bcl-2,bcl-2,inhibition
same,reduction of Cox-2 expression,Cyclooxygenase-2 (Cox-2),22.2%
